Laboratory results from the supplement of paper PMC10307832.

Legend:
Assay in all cases: relative viability (nuclei count vs DMSO), 5 days (fraction); higher = more cells survive
KN-93 + Crizotinib = compound: CN(C/C=C/C1=CC=C(C=C1)Cl)CC2=CC=CC=C2N(CCO)S(=O)(=O)C3=CC=C(C=C3)OC [KN-93] + C[C@@H](Oc1cc(-c2cnn(C3CCNCC3)c2)cnc1N)c1c(Cl)ccc(F)c1Cl [Crizotinib] (partner 1 µM)
Method in brief: (§1)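 Medians of duplicate plates are given as relative viability. That measure is the nuclei count in treated wells divided by the count in vehicle wells. Counts were taken on 4× images of lung cancer cell lines in 1536-well plates, 5 days after pin-tool dosing the day after seeding with one drug alone or a fixed anchor-drug dose plus five library-drug doses (not always all listed) in √10 steps.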

KN-93 + Pemetrexed = compound: CN(C/C=C/C1=CC=C(C=C1)Cl)CC2=CC=CC=C2N(CCO)S(=O)(=O)C3=CC=C(C=C3)OC [KN-93] + Nc1nc2[nH]cc(CCc3ccc(C(=O)N[C@@H](CCC(=O)O)C(=O)O)cc3)c2c(=O)[nH]1 [Pemetrexed] (partner 0.2 µM)
Method in brief: as §1

KN-93 + Bortezomib = compound: CN(C/C=C/C1=CC=C(C=C1)Cl)CC2=CC=CC=C2N(CCO)S(=O)(=O)C3=CC=C(C=C3)OC [KN-93] + CC(C)C[C@H](NC(=O)[C@H](Cc1ccccc1)NC(=O)c1cnccn1)B(O)O [Bortezomib] (partner 0.002 µM)
Method in brief: as §1

KN-93 + Decitabine = compound: CN(C/C=C/C1=CC=C(C=C1)Cl)CC2=CC=CC=C2N(CCO)S(=O)(=O)C3=CC=C(C=C3)OC [KN-93] + Nc1ncn([C@H]2C[C@H](O)[C@@H](CO)O2)c(=O)n1 [Decitabine] (partner 2 µM)
Method in brief: as §1

KN-93 + OSI-027 = compound: CN(C/C=C/C1=CC=C(C=C1)Cl)CC2=CC=CC=C2N(CCO)S(=O)(=O)C3=CC=C(C=C3)OC [KN-93] + COc1cccc2cc(-c3nc([C@H]4CC[C@H](C(=O)O)CC4)n4ncnc(N)c34)[nH]c12 [OSI-027] (partner 0.5 µM)
Method in brief: as §1

Cell Line | relative viability (KN-93 + Crizotinib; first compound 0.08 µM) | relative viability (KN-93 + Crizotinib; first compound 0.253 µM) | relative viability (KN-93 + Crizotinib; first compound 2.53 µM) | relative viability (KN-93 + Crizotinib; first compound 8 µM) | relative viability (KN-93 + Pemetrexed; first compound 0.08 µM) | relative viability (KN-93 + Pemetrexed; first compound 0.253 µM) | relative viability (KN-93 + Pemetrexed; first compound 2.53 µM) | relative viability (KN-93 + Pemetrexed; first compound 8 µM) | relative viability (KN-93 + Bortezomib; first compound 0.08 µM) | relative viability (KN-93 + Bortezomib; first compound 0.253 µM) | relative viability (KN-93 + Bortezomib; first compound 2.53 µM) | relative viability (KN-93 + Bortezomib; first compound 8 µM) | relative viability (KN-93 + Decitabine; first compound 0.08 µM) | relative viability (KN-93 + Decitabine; first compound 0.253 µM) | relative viability (KN-93 + Decitabine; first compound 2.53 µM) | relative viability (KN-93 + Decitabine; first compound 8 µM) | relative viability (KN-93 + OSI-027; first compound 0.08 µM) | relative viability (KN-93 + OSI-027; first compound 0.253 µM) | relative viability (KN-93 + OSI-027; first compound 2.53 µM) | relative viability (KN-93 + OSI-027; first compound 8 µM)
NCI-H1651 | 0.846 | 0.959 | 0.9 | 0.732 | 0.611 | 0.701 | 0.567 | 0.511 | 0.976 | 1.03 | 0.987 | 0.805 | 0.594 | 0.597 | 0.623 | 0.534 | 0.588 | 0.73 | 0.749 | 0.423
NCI-H1666 | 0.939 | 0.837 | 0.998 | 0.626 | 0.844 | 1 | 0.818 | 0.821 | 0.753 | 0.669 | 0.945 | 0.607 | 0.705 | 0.716 | 0.783 | 0.748 | 0.882 | 0.834 | 0.993 | 0.857
NCI-H1734 | 0.646 | 0.752 | 0.74 | 0.421 | 0.457 | 0.478 | 0.399 | 0.417 | 0.941 | 0.902 | 1.1 | 0.566 | 0.465 | 0.596 | 0.502 | 0.442 | 0.53 | 0.574 | 0.605 | 0.404
NCI-H1755 | 0.86 | 1.14 | 0.903 | 0.566 | 0.455 | 0.432 | 0.453 | 0.44 | 0.923 | 1.07 | 0.967 | 0.546 | 0.752 | 0.723 | 0.696 | 0.703 | 0.832 | 0.727 | 0.776 | 0.559
NCI-H1792 |  | 1.1 | 0.976 | 0.914 | 0.605 | 0.909 | 0.971 | 0.513 |  | 0.923 | 1.04 | 0.781 | 0.278 | 0.489 | 0.602 | 0.535 | 0.527 | 0.651 | 0.768 | 0.664
NCI-H1915 | 0.705 | 1.35 | 0.953 | 0.859 | 0.471 | 0.601 | 0.515 | 0.506 | 0.929 | 1.31 | 1.1 | 0.54 | 0.274 | 0.261 | 0.26 | 0.246 | 0.571 | 0.718 | 0.653 | 0.472
NCI-H1975 | 0.721 | 1.2 | 0.875 | 0.581 | 0.277 | 0.299 | 0.309 | 0.221 | 0.334 | 0.38 | 0.33 | 0.249 | 0.389 | 0.361 | 0.412 | 0.272 | 0.674 | 0.731 | 0.677 | 0.417
NCI-H1993 | 0.968 | 0.814 | 0.76 | 0.727 | 0.474 | 0.535 | 0.618 | 0.58 | 0.836 | 1.02 | 1.2 | 0.523 | 0.573 | 0.548 | 0.579 | 0.601 | 0.544 | 0.607 | 0.565 | 0.573
NCI-H2009 | 1.18 | 1.1 | 1.04 | 0.474 | 1.01 | 1.07 | 1.1 | 0.796 | 1.05 | 0.995 | 0.84 | 0.462 | 0.421 | 0.393 | 0.399 | 0.317 | 0.608 | 0.629 | 0.535 | 0.248
NCI-H2023 | 0.795 | 0.855 | 0.745 | 0.439 | 0.244 | 0.247 | 0.325 | 0.14 | 0.971 | 0.955 | 1.04 | 0.448 | 0.189 | 0.239 | 0.219 | 0.201 | 0.361 | 0.359 | 0.345 | 0.211
NCI-H2085 | 0.815 | 1.17 | 0.921 | 0.565 | 0.933 | 0.905 | 0.883 | 0.739 | 0.909 | 1.12 | 1.16 | 0.663 | 0.581 | 0.502 | 0.516 | 0.496 | 0.733 | 0.639 | 0.806 | 0.597
NCI-H2087 | 0.678 | 1.01 | 0.84 | 0.55 | 0.694 | 0.672 | 0.564 | 0.607 | 0.759 | 1.24 | 0.874 | 0.33 | 0.28 | 0.235 | 0.273 | 0.155 | 0.481 | 0.566 | 0.586 | 0.491
NCI-H2126 | 1.04 | 1.14 | 1.07 | 0.981 | 0.541 | 0.64 | 0.69 | 0.654 | 1.07 | 1.08 | 1.19 | 1.09 | 0.51 | 0.522 | 0.656 | 0.475 | 0.691 | 0.557 | 0.638 | 0.674
NCI-H2347 | 0.686 | 0.731 | 0.739 | 0.463 | 0.376 | 0.473 | 0.45 | 0.549 | 1.27 | 0.741 | 0.828 | 0.745 | 0.57 | 0.617 | 0.643 | 0.539 | 0.379 | 0.318 | 0.371 | 0.339
NCI-H2405 | 0.853 | 0.832 | 0.873 | 0.665 | 1.06 | 1.24 | 1.02 | 0.775 | 1.01 | 0.978 | 1.09 | 0.728 | 0.741 | 0.736 | 0.77 | 0.593 | 0.62 | 0.584 | 0.697 | 0.606
